# Laboratory results published in US7169789B2 (Kirin Beer Kabushiki Kaisha, priority 1999, dated 2007).
# Read-outs that look alike come from different tables or passages of the source.
# Legend:
# [1] = tested on: activation of MAPK within vascular endothelial cells induced by VEGF stimulation; assay: Inhibitory activity against activation of MAPK within vascular endothelial cells induced by VEGF stimulation; format: cell-based; details: human funicular venous vascular endothelial cells, VEGF 50 ng/ml, phosphorylated MAPK by immunoblotting
# Description: Measurement of Inhibitory Activity Against Activation of MAPK Within Vascular Endothelial Cells Induced by VEGF Stimulation
# Human funicular venous vascular endothelial cells (purchased from Chronetics) were cultured in an EGM-2 medium (purchased from Chronetics) within an incubator containing 5% carbon dioxide until 50 to 70% confluent, and the culture was inoculated into wells, containing the same medium, in a 96-well flat-bottom plate in an amount of 1.5×10^5 per well. After cultivation at 37° C. overnight, the medium was replaced by an EBM-2 medium containing 0.5% fetal calf serum (purchased from Chronetics), followed by cultivation for 24 hr. A solution of the test compound in dimethyl sulfoxide was added to each well, and the cultivation was continued at 37° C. for additional one hr. A human recombinant vascular endothelial growth factor (hereinafter abbreviated to “VEGF”) was added to a final concentration of 50 ng/ml, and the stimulation of cells was carried out at 37° C. for 8 min. The medium was removed, the cells were washed with phosphate buffered saline (pH 7.4), and 10 μl of a solubilization buffer (Tris buffered saline (pH 7.4) containing 1% Triton X100, 2 mM sodium orthovanadylate, and 1 mM disodium ethylenediaminetetraacetate) was then added thereto. The mixture was shaken at 4° C. for one hr to solubilize the cells. An equal amount of Tris buffered saline containing 1% sodium laurylsulfate was added to and thoroughly mixed with the solution. This solution (2 μl) was adsorbed on a PVDF filter by dot blotting, and this filter was subjected to immunoblotting with anti-tyrosine phosphorylated MAPK antibody (purchased from Daiichi Pure Chemicals).
# The level of phosphorylated MAPK was quantitatively determined with a densitometer, and the percentage phosphorylated MAPK in the presence of the test compound was determined by presuming the level of phosphorylated MAPK with the addition of VEGF in the absence of the test compound to be 100% and the level of phosphorylated MAPK in the absence of the test compound and VEGF to be 0%. The test compound concentration (IC50) necessary for inhibiting 50% of the activation of MAPK was calculated based on the percentage of phosphorylated MAPK.
# human KDR = target: T1, human KDR (Homo sapiens, UniProt P35968); assay: Inhibitory activity against KDR phosphorylation by ELISA; format: cell-based; details: NIH 3T3 cells transfected with human KDR, VEGF 100 ng/ml
# T1 construct: expressed in transfected cells; host or cells: NIH 3T3 cells (Sawano A et al., Cell Growth & Differentiation 7, 213-221 (1996))
# Human glioma cells GL07 = assay: Antitumor effect on human glioma cells (GL07) transplanted into nude mice; format: in vivo; details: 20 mg/kg once a day for 9 days; for inhibition in vivo at 20 mg/kg: Mus musculus, Glioma cell, 216 h, read-out: TGIR, % (tumor growth inhibition rate)
# Method in brief: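 GL07 xenografts in nude mice, grouped (n=4) at ~100 mm^3 tumor volume. Test compound 20 mg/kg p.o. or i.p. once daily for 9 days; vehicle controls. TGIR = (1−Tx/Cx)×100 from tumor volumes normalized to day-of-start volume = 1.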
# T1 sequence (P35968 20-1356): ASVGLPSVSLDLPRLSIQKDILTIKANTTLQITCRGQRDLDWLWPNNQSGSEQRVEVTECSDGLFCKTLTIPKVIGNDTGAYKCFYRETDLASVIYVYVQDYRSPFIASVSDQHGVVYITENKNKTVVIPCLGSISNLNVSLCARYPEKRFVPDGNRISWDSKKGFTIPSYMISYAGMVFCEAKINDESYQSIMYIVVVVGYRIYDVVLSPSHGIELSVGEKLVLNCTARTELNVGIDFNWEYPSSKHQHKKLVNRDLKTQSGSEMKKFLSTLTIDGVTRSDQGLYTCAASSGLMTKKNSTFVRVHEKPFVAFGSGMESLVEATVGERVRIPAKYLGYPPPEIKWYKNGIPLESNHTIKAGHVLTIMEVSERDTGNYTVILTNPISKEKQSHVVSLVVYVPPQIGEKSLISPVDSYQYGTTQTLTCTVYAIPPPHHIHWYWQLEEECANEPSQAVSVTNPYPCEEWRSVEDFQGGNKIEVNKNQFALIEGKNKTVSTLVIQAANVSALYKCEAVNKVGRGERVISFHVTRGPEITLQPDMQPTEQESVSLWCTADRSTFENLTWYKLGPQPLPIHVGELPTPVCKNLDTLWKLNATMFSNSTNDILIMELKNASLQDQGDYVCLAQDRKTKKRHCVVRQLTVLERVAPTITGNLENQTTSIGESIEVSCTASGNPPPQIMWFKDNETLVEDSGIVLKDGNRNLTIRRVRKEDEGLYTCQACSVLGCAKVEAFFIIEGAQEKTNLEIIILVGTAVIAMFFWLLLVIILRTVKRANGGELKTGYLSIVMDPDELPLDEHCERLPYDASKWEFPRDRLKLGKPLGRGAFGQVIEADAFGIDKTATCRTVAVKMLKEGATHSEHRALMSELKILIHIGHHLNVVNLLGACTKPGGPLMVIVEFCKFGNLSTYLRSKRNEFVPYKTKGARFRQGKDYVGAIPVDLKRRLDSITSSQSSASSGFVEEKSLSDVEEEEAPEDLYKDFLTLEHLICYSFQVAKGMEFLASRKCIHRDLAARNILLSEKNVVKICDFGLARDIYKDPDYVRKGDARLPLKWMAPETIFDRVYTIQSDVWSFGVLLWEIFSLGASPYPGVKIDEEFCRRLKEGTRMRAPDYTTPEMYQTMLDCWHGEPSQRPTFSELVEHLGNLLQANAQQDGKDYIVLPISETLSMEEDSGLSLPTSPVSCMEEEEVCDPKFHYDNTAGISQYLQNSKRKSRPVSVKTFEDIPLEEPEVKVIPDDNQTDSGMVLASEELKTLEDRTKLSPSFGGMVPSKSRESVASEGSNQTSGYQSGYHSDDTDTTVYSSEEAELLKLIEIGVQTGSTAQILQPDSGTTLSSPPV
IC50 ([1]; Endothelial cell) [nM],IC50 (human KDR) [nM],SMILES,"inhibition in vivo at 20 mg/kg (Human glioma cells GL07; GL07, oral) [%]",also measured
0.6,–,"COc1cc2nccc(Oc3ccc(NC(=O)Nc4ccccc4C)c(Cl)c3)c2cc1OC [Example 19, N-{2-Chloro-4-[(6,7-dimethoxy-4-quinolyl)oxy]phenyl}-N′-(2-methylphenyl)urea]",–,–
5.1,–,"CCCCNC(=O)Nc1ccc(Oc2ccnc3cc(OC)c(OC)cc23)cc1F [Example 9, N-Butyl N′-{4-[(6,7-dimethoxy-4-quinolyl)oxy]-2-fluorophenyl}urea]",–,"inhibition in vivo at 20 mg/kg (Human glioma cells GL07; ip, GL07, intraperitoneal): 59%"
–,0.5,"CCCNC(=O)Nc1ccc(Oc2ccnc3cc(OCCCN4CCOCC4)c(OC)cc23)cc1Cl [Example 151, N-(2-chloro-4-{[6-methoxy-7-(3-morpholinopropoxy)-4-quinolyl]oxy}phenyl)-N′-propylurea]",44,–
–,3.9,"CCCNC(=O)Nc1ccc(Oc2ncnc3cc(OCCN4CCOCC4)c(OC)cc23)cc1Cl [Example 120, N-(2-Chloro-4-{[6-methoxy-7-(2-morpholinoethoxy)-4-quinazolinyl]oxy}phenyl)-N′-propylurea]",30,–
–,1,"CCCNC(=O)Nc1ccc(Oc2ccnc3cc(OCCn4ccnc4)c(OC)cc23)cc1Cl [Example 146, N-[2-chloro-4-(7-{[2-(1H-1-imidazolyl)ethoxy]-6-methoxy-4-quinolyl}oxy)phenyl]-N′-propylurea]",48,–
–,3.6,"CCCNC(=O)Nc1ccc(Oc2ncnc3cc(OCCCN4CCOCC4)c(OC)cc23)cc1Cl [Example 119, N-(2-chloro-4-{[6-methoxy-7-(3-morpholinopropoxy)-4-quinazolinyl]oxy}phenyl)-N′-propylurea]",40,–
–,4,"COc1cc2c(Oc3ccc(NC(=O)Nc4ccc(F)cc4F)c(Cl)c3)ccnc2cc1OCCCN1CCOCC1 [Example 168, N-(2-chloro-4-{[6-methoxy-7-(3-morpholinopropoxy)-4-quinolyl]oxy}phenyl)-N′-(2,4-difluorophenyl)-urea]",42,–
–,14,"CCCNC(=O)Nc1ccc(Oc2ccnc3cc(OCc4ccccn4)c(OC)cc23)cc1Cl [Example 141, N-(2-Chloro-4-{[6-methoxy-7-(2-pyridylmethoxy)-4-quinolyl]oxy}phenyl)-N′-propylurea]",28,–
0.5,–,"COCCOc1cc2nccc(Oc3ccc(NC(=O)Nc4ccc(F)cc4F)c(Cl)c3)c2cc1OC [Example 54, N-(2-Chloro-4-{[6-methoxy-7-(2-methoxyethoxy)-4-quinolyl]oxy}phenyl)-N′-(2,4-difluorophenyl)urea]",59,–
–,1.5,"CCCNC(=O)Nc1ccc(Oc2ccnc3cc(OCCCn4ccnc4)c(OC)cc23)cc1Cl [Example 154, N-[2-Chloro-4-({7-[3-(1H-1-imidazolyl)-propoxy]-6-methoxy-4-guinolyl}oxy)phenyl]-N′-propylurea]",34,–
–,2.6,"CCCNC(=O)Nc1ccc(Oc2ccnc3cc(OCc4cccnc4)c(OC)cc23)cc1Cl [Example 142, N-(2-chloro-4-{[6-methoxy-7-(3-pyridylmethoxy)-4-quinolyl]oxy}phenyl)-N′-propylurea]",48,–
5.2,–,"C#CCNC(=O)Nc1ccc(Oc2ccnc3cc(OC)c(OC)cc23)cc1F [Example 7, N-{4-[(6,7-Dimethoxy-4-quinolyl)oxy]-2-fluorophenyl}-N′-(2-propynyl)urea]",–,–

# Further lines, the compound ahead of its results:
SMILES,IC50 ([1]; Endothelial cell) [nM],IC50 (human KDR) [nM],"inhibition in vivo at 20 mg/kg (Human glioma cells GL07; GL07, oral) [%]",also measured
"COc1cc2nccc(Oc3ccc(NC(=O)NCC(C)C)c(F)c3)c2cc1OC [Example 11, N-{4-[(6,7-Dimethoxy-4-quinolyl)oxy]-2-fluorophenyl}-N′-isobutylurea]",15,–,–,–
"COc1ccccc1NC(=O)Nc1ccc(Oc2ncnc3cc(OC)c(OC)cc23)cc1 [Example 75, N-{4-[(6,7-Dimethoxy-4-quinazolinyl)oxy]-phenyl}-N′-(2-methoxyphenyl)urea]",1.2,1.4,–,–
"COc1ccccc1NC(=O)Nc1ccc(Oc2ncnc3cc(OC)c(OC)cc23)cc1Cl [Example 86, N-{2-Chloro-4-[(6,7-dimethoxy-4-quinazolinyl)oxy]phenyl}-N′-(2-methoxyphenyl)urea]",0.6,1.5,–,–
"CCC(C)NC(=O)Nc1ccc(Oc2ccnc3cc(OC)c(OC)cc23)cc1F (stereo not drawn) [Example 10, N-(sec-Butyl)-N′-{4-[(6,7-dimethoxy-4-quinolyl)oxy]-2-fluorophenyl}urea]",7.8,–,–,–
"CCNC(=O)Nc1ccc(Oc2ncnc3cc(OC)c(OC)cc23)cc1 [Example 63, N-{4-[(6,7-Dimethoxy-4-quinazolinyl)oxy]-phenyl}-N′-ethylurea]",70,150,–,–
"C=CCNC(=O)Nc1ccc(Oc2ccnc3cc(OC)c(OC)cc23)cc1F [Example 4, N-Allyl-N′-{4-[(6,7-dimethoxy-4-quinolyl)-oxy]-2-fluorophenyl}urea]",2.1,–,61,–
"CCCNC(=O)Nc1ccc(Oc2ccnc3cc(OC)c(OC)cc23)cc1F [Example 5, N-{4-[(6,7-Dimethoxy-4-guinolyl)oxy]-2-fluorophenyl}-N′-propylurea]",–,–,–,"TGIR, % (tumor growth inhibition rate) (Human glioma cells GL07; GL07, oral): 59%; IC50 [1]: 2.9 nM"
"COc1cc2c(Oc3ccc(NC(=O)Nc4ccc(F)cc4F)c(F)c3)ccnc2cc1OCCN1CCOCC1 [Example 50, N-(2,4-Difluorophenyl)-N′-(2-fluoro-4-{[6-methoxy-7-(2-morpholinoethoxy)-4-quinolyl]oxy}phenyl)-urea]",0.5,–,59,–
"COCCOc1cc2nccc(Oc3ccc(NC(=O)Nc4ccc(F)cc4F)c(C)c3C)c2cc1OC [Example 56, N-(2,4-Difluorophenyl)-N′-(4-{[6-methoxy-7-(2-methoxyethoxy)-4-quinolyl]oxy}-2,3-dimethylphenyl)-urea]",5.1,–,–,–
"COc1cc2nccc(Oc3ccc(NC(=O)Nc4cccc5ccccc45)c(Cl)c3)c2cc1OC [Example 23, N-{2-Chloro-4-[(6,7-dimethoxy-4-guinolyl)oxy]phenyl}-N′-(1-naphthyl)urea]",–,–,–,IC50 [1]: 5.4 nM
"COCCOc1cc2nccc(Oc3ccc(NC(=O)Nc4ccccc4OC)c(C)c3C)c2cc1OC [Example 57, N-(4-{[6-Methoxy-7-(2-methoxyethoxy)-4-quinolyl]oxy}-2,3-dimethylphenyl)-N′-(2-methoxyphenyl)urea]",6.5,–,–,–
"COc1cc2c(Oc3ccc(NC(=O)Nc4ccc(F)cc4F)c(Cl)c3)ccnc2cc1OCc1ccncc1 [Example 186, N-(2-chloro-4-{[6-methoxy-7-(4-pyridylmethoxy)-4-quinolyl]oxy}phenyl)-N′-(2,4-difluorophenyl)urea]",–,6.3,47,–
"COc1cc2nccc(Oc3ccc(NC(=O)NCc4ccc(F)cc4F)c(F)c3)c2cc1OC [Example 1, N-(2,4-Difluorobenzyl)-N′-{4-[(6,7-dimethoxy-4-quinolyl)oxy]-2-fluorophenyl}urea]",1.8,–,–,–
"CCNC(=O)Nc1ccc(Oc2ccnc3cc(OC)c(OC)cc23)cc1F [Example 8, N-{4-[(6,7-Dimethoxy-4-guinolyl)oxy]-2-fluorophenyl}-N′-ethylurea]",–,–,–,IC50 [1]: 11 nM
"COc1ccccc1NC(=O)Nc1ccc(Oc2ncnc3cc(OC)c(OC)cc23)c(C)c1 [Example 101, N-{4-[(6,7-Dimethoxy-4-quinazolinyl)oxy]-3-methylphenyl}-N′-(2-methoxyphenyl)urea]",–,3,44,–
